Measured values from patent US12466814B2, “Sterically shielded heptamethine cyanine dyes” (UNIVERSITY OF NOTRE DAME DU LAC, priority 2020, dated 2025).
Where two headings read alike, the source gives them in different places. Marks after values point to notes of the source that are not given here.

Key:
[1] = Absorption and emission spectral properties of dyes; format: physicochemical; details: for ε: monomer band
Protocol: General. Reagents and solvents were purchased from Sigma-Aldrich, VWR, Oakwood, Thermo Fisher and TCI and used without further purification unless stated otherwise. Anhydrous tetrahydrofuran was distilled with metal sodium and benzophenone. Column chromatography was performed using Biotage SNAP Ultra columns. ^1H, ^13C and ROESY NMR spectra were recorded on a Bruker 500 NMR spectrometer. Chemical shifts are presented in ppm and referenced by residual solvent peak. High-resolution mass spectrometry (HRMS) was performed using a time-of-flight (TOF) analyzer with electrospray ionization (ESI). Absorption spectra were recorded on an Evolution 201 UV/vis spectrometer with Thermo Insight software. Fluorescence spectra were collected on a Horiba Fluoromax-4 fluorometer with FluoroEssence software. Analyte solutions were prepared in HPLC grade water (Sigma-Aldrich), phosphate buffered saline (Thermo Fisher), fetal bovine serum (Sigma-Aldrich) or buffer B (575 mM NaCl, 37.5 mM NaH2PO4 and 0.75 mM EDTA in water, pH 7.5). All absorption and fluorescence spectra were collected using quartz cuvettes (1 mL, 1 cm path length; for emission and excitation spectra, slit width=3 nm).

[2] = Quantum yield and fluorescence brightness relative to UL766; format: physicochemical; details: for Brightness (fluorescence brightness = ε × QY): PBS pH 7.4, error ±15%; for Quantum yield: pH 7.4 PBS, relative to UL766, error ±10%
Source text: The fluorescence spectrum of each solution was obtained with excitation at 730 nm, and the integrated area was used in the quantum yield calculation by the following equation:
[formula] where η is the refractive index of the solvent, I is the integrated fluorescence intensity, and A is the absorbance at a chosen wavelength. […]

[3] = Photostability, Xenon lamp irradiation; format: physicochemical
Protocol: FIG. 2. Two separate photostability studies. (a) Lamp irradiation: Four separate cuvettes, each containing 1 μM dye in PBS buffer, pH 7.4, were irradiated by a 150 W Xenon lamp with a 620 nm long-pass filter. The plot of normalized dye absorbance versus time was fit to a one-phase exponential decay. […] The length scale bar on each NIR fluorescence image is 1 cm.
Photostability Measurements. Lamp Irradiation: A solution of dye (1 μM) in PBS buffer, pH 7.4, was placed in a 1×1×4 cm^3 cuvette that was exposed to air and irradiated at a distance of 3 cm by a 150 W Xenon lamp with a 620 nm long-pass filter. An absorbance spectrum was recorded every 10 min. The normalized maximum absorbance of dye was plotted against time and fitted to a non-linear regression, one-phase exponential decay. […] A 1.5 mL vial containing the solution was irradiated at a distance of 3 cm by a 150 W Xenon lamp with a 620 nm long-pass filter.

[4] = Mouse biodistribution in normal mice; format: in vivo, SKH1 hairless mice; details: 10 nmol
Source text: FIG. 20. a) Representative whole-body NIR fluorescence images of living SKH1 hairless mice at 0, 1, and 2 hr after intravenous injection of either ICG or s775z (10 nmol). b) In vivo biodistribution of s775z and ICG in normal mice. The SKH1 hairless mice (N=4) received an intravenous injection of ICG or s775z (10 nmol) and were sacrificed after 2 hr. The mean pixel intensity (MPI) for each excised organ is relative to the MPI for thigh muscle from the same animal; error bars indicate ±SEM. * indicates p<0.05. Note: the y-axis is truncated.
Mouse Biodistribution. All animal experiments were conducted under protocols that were approved by the Notre Dame Institutional Animal Care and Use Committee. Female SKH1 hairless mice (N=4) were divided into two cohorts and received a retro-orbital injection of ICG or s775z (50 μL, 10 nmol). […] The mice were then injected with dye and imaged at 0, 1, and 2 hr. At 2 hr, the mice were anesthetized, sacrificed via cervical dislocation, and blood was collected from the heart. The lower cavity of the mice was then exposed and imaged. […] The images were pseduocolored “fire,” and an arbitrary maximum fluorescence value was chosen. […] The amount of dye was then quantified by manually drawing a region of interest around each organ. The MPI of each organ was measured and divided by the MPI for thigh muscle from the same animal.

[5] = PBS pH 7.4, cited from earlier work; for ε: reported data; for λabs max / λem max: spectral data from reference
[6] = cited from earlier work; for QY / Brightness (fluorescence brightness = ε × QY): PBS pH 7.4; for QY: data from reference; for Brightness (fluorescence brightness = ε × QY) / Quantum yield: reported data; for Quantum yield: pH 7.4 PBS
[7] = meso linkage is not cleaved by biological amines or thiols; cited from earlier work
[8] = known from literature; cited from earlier work
[9] = Dye self-aggregation by absorption/excitation spectra; format: physicochemical; details: in water / aqueous media, absorption spectra
Source text: Self-aggregation of heptamethine cyanine dyes is readily indicated by conversion of monomer absorption bands into aggregate bands, in this case blue-shifted H-aggregates.

[10] = test system: integrin positive A549 cells; test: Cell uptake by fluorescence microscopy; format: cell-based, human
Protocol: FIG. 19. […] The two targeted dyes contain a cyclic peptide cRGDfK sequence for targeting the overexpressed cell surface integrin receptors. The blocking experiments added 100 μM of free cRGDfK prior to the incubation with RGD probes. NIR heptamethine fluorescence is shown in green, and Hoechst nuclear stain is shown in blue. Scale bar=30 μm. (c) Quantification of intracellular mean fluorescence intensities as a measure of NIR dye internalization (6 micrographs per condition and 3 replicates). * indicates p<0.05, and ** p<0.01.
Cell Microscopy. For fluorescence microscopy, A549 cells were seeded and grown to 70% confluency on an 8-well chambered coverglass (Lab-Tek, Nunc, USA). […] For blocking, 100 μM of cRGDfK was added to the cells, 10 min prior to dye treatment and remained present during NIR dye incubation. After dye incubation, the cells were washed several times with PBS, fixed with 4% cold paraformaldehyde for 20 min at room temperature and washed again with PBS. […] Next, a triangle threshold was employed and used to calculate the average mean pixel intensity (MPI) where overall averages and SEM were calculated and plotted in GraphPad Prism. A total of 6 micrographs were evaluated per condition and each experiment was conducted in triplicate.

[11] = test system: subcutaneous tumor (human A549 cells); test: Mouse tumor imaging; format: in vivo, nude mice; details: A549 tumor mice, 10 nmol
Protocol: […]. The fluorescence mean pixel intensity (MPI) of two regions of interest (equal sizes) on the fluorescent images (tumor or background site on the opposite flank), at different post-injection time points, were measured using ImageJ2 software and used to calculate values for Tumor MPI, and Tumor-to-Background Ratio. * indicates p<0.05, ** p<0.01, and *** p<0.001.
Mouse Tumor Imaging. All animal experiments were conducted under protocols that were approved by the Notre Dame Institutional Animal Care and Use Committee. Female Foxn1 nude mice (N=8) were inoculated with A549 cells (1×10^6) in Corning Matrigel matrix on the right rear flank. […]. The mice were then injected with dye and imaged at 0, 0.5, 1, 2, and 3 hr. At 3 hr, the mice were anesthetized and sacrificed via cervical dislocation, and blood was collected from the heart. To simulate a surgery, the mice were imaged prior to surgery, the fluorescent tumor was fully removed, and the mice were imaged again. […] For image processing, the whole body and tumor images were pseudocolored “fire,” and an arbitrary maximum fluorescence value was chosen. Biodistribution analysis was performed by importing NIR fluorescence images of the excised organs from each mouse into ImageJ2 and the amount of dye in each organ was quantified by manually drawing a region of interest around each organ and determining the fluorescence MPI. […]

SMILES | ε ([1]; PBS pH 7.4, room temperature) | Brightness (fluorescence brightness = ε × QY) [2] | Quantum yield [2] | ε [5] | λabs max [5] [nm] | λem max [5] [nm] | QY [6] | Brightness (fluorescence brightness = ε × QY) [6] | Quantum yield [6] [%] | Stable to nucleophiles [7] | Change in serum under very similar conditions [8] | further results
CC1(C)C(/C=C/C=C/C=C/C=C2\N(CCCCS(=O)(=O)O)c3ccc4ccccc4c3C2(C)C)=[N+](CCCCS(=O)(=O)[O-])c2ccc3ccccc3c21 [ICG, Indocyanine Green] | 71,000 M^−1cm^−1 | 1,600 | 2.3^[b] % | – | – | – | – | – | – | – | – | half-life at 1 μM ([3]; PBS buffer in a cuvette exposed to air, pH 7.4 PBS, 150 W Xenon lamp irradiation, 620 nm long-pass filter, 23° C., 1 μM dye, read-out: t1/2, half-life of first-order decay (converted)): 13.3 min; k, rate constant of first-order decay ([3]; pH 7.4 PBS, 150 W Xenon lamp irradiation, 620 nm long-pass filter, 23° C., 1 μM dye): 0.00087 s⁻¹; Order of photostabilities ([3]; separate cuvettes, dye in PBS, Xenon lamp >620 nm): s775z>756z>UL766>ICG; Clearance from bloodstream ([4]; retro-orbital injection, live imaging over 2 hr): quickly cleared from the mouse bloodstream; Clearance pathway / biodistribution ([4]; sacrificed after 2 hours): accumulated in the intestines and liver
CC1(C)C(/C=C/C2=C(Oc3ccc(S(=O)(=O)O)cc3)C(=C/C=C3/N(CCCCS(=O)(=O)O)c4ccc(S(=O)(=O)[O-])cc4C3(C)C)/CCC2)=[N+](CCCCCC(=O)O)c2ccc(S(=O)(=O)O)cc21 [CW800] | – | – | – | 242,000 M^−1cm^−1 | 775 | 796 | 0.090 | 22,000 | 9.0 | No | degradation | –
CC1(C)C(/C=C/C2=C(Oc3ccc(CCC(=O)O)cc3)C(=C/C=C3/N(CCC[N+](C)(C)C)c4ccc(S(=O)(=O)O)cc4C3(C)C)/CCC2)=[N+](CCC[N+](C)(C)C)c2ccc(S(=O)(=O)O)cc21 [ZW800-1] | – | – | – | 246,000 M^−1cm^−1 | 770 | 788 | 0.135 | 33,000 | 13.5 | No | degradation | –
CC1(C)C(/C=C/C2=C(c3ccc(C(=O)NCCCC[C@@H]4NC(=O)[C@@H](Cc5ccccc5)NC(=O)[C@H](CC(=O)O)NC(=O)CNC(=O)[C@H](CCCNC(=N)N)NC4=O)cc3)C(=C/C=C3/N(CCC[N+](C)(C)C)c4ccc(S(=O)(=O)O)cc4C3(C)C)/CCC2)=[N+](CCC[N+](C)(C)C)c2ccc(S(=O)(=O)O)cc21 [Dye 756z-RGD] | 147,000 M^−1cm^−1 | 16,000 | 10.7^[b] % | – | – | – | – | – | – | – | – | SS (Stokes shift) ([1]; PBS pH 7.4): 16 nm; λabs max, aggregate (a) band ([1]; PBS pH 7.4, room temperature): 682 (a)/ nm; λem max ([1]; PBS pH 7.4, room temperature): 773 nm; λabs max ([1]; PBS pH 7.4, room temperature, monomer (m) band where an aggregate band is also listed): 757 (m) nm; Aggregation state [9]: concentration-dependent mixture of fluorescent monomer and non-fluorescent H-aggregate; Cell uptake with blocking ([10]; A549 cells pre-incubated with excess (100 μM) cRGDfK): successfully blocked; Cell uptake ([10]; A549 cells, 10 μM dye, 1 hr, 37° C.): much higher cell uptake
COCCOCCOCCOCc1cn(Cc2cc(C(=O)NCCCC[C@@H]3NC(=O)[C@@H](Cc4ccccc4)NC(=O)[C@H](CC(=O)O)NC(=O)CNC(=O)[C@H](CCCNC(=N)N)NC3=O)cc(Cn3cc(COCCOCCOCCOC)nn3)c2C(=C\C=C\C2=[N+](CCC[N+](C)(C)C)c3ccc(S(=O)(=O)O)cc3C2(C)C)/C=C/C=C2/N(CCC[N+](C)(C)C)c3ccc(S(=O)(=O)O)cc3C2(C)C)nn1 [s775z-RGD] | – | – | – | – | – | – | – | – | – | – | – | Clearance and background retention [11]: rapid, near-exclusive renal clearance from the bloodstream
